Data as given in patent US9079834B2, “HIV protease inhibitors” (Merck Canada Inc., priority 2010, dated 2015).
pIC50: −log10 of the molar value.

Experiments:
wild-type HIV-1 protease = wild-type HIV-1 protease (Human immunodeficiency virus type 1 group M subtype B (isolate HXB2) (HIV-1), UniProt P04585); assay: Assay for inhibition of microbial expressed HIV protease; format: biochemical; conditions: wild-type HIV-1 protease enzyme
Protocol: The inhibition of WT HIV-1 protease was studied using the reaction of the protease (expressed in Escherichia coli) with a peptide substrate as described in WO 2009/042094. The test compound was first preincubated with the enzyme in assay buffer (50 mM sodium acetate, pH 5.5, 100 mM NaCl, and 0.1% BSA) for 30 minutes at room temperature. Substrate was then added to 400 micromolar in a total volume of 80 microliters containing 10 picomolar HIV-1 protease and the reaction was incubated for 1 hour at 30° C. The reaction was quenched with the addition of 120 microliters of 10% phosphoric acid. The product formation was determined after separation of product and substrate on a ZORBAX® Eclipse XDB-C18 (Agilent Technologies, Palo Alto, Calif.) column connected to an Agilent 1100 high performance liquid chromatography system with fluorescence detection (excitation 270 nanometer and emission 330 nanometer). Alternatively, the inhibitor was preincubated with enzyme and substrate as described above, but in a total volume of 20 microliters containing 20 picomolar HIV-1 protease and the reaction was incubated for 1 hour at 30° C. The reaction was quenched with the addition of 30 microliters of 1 micromolar indinavir (indinavir was also used as an internal standard), and the product formation was determined after separation of product and substrate on a ZORBAX® Eclipse XDB-C18 column connected to an API 4000 mass spectrometer (Applied Biosystems, Carlsbad, Calif.) with multiple reaction monitoring (transitions were 644.5/428.9 and 615.4/422.2 (M1/M3) for product and indinavir respectively). The extent of inhibition of the reaction was determined from the peak area of the products. HPLC of the products, independently synthesized, provided quantitation standards and confirmation of the product composition.

[1] = system: HIV-1 replication in T-lymphoid cells; assay: Assay for inhibition of HIV replication (spread assay); format: cell-based; conditions: 10% FBS
Protocol: Assays for the inhibition of acute HIV infection of T-lymphoid cells were conducted in accordance with Vacca, J. P. et al., Proc. Natl. Acad. Sci. USA 91: 4096-4100 (1994).

[2] = Human immunodeficiency virus 1, T-lymphoid

SMILES	pIC50 (wild-type HIV-1 protease)	IC95 [1, 2] [nM]	IC95 [1] [nM]
CCCCCN([C@H](CO)CCC(F)(F)CNC(=O)[C@@H](NC(=O)OC)C(c1ccccc1)c1ccccc1)S(=O)(=O)c1ccc(CO)cc1 [Example 2]	10.72	16.3	
COC(=O)N[C@H](C(=O)NCC(F)(F)CC[C@@H](CO)N(Cc1cn[nH]c1)S(=O)(=O)c1ccc2ncsc2c1)C(c1ccccc1)c1ccccc1 [Example 5, N-{(5S)-5-[(1,3-benzothiazol-6-ylsulfonyl)(1H-pyrazol-4-ylmethyl)amino]-2,2-difluoro-6-hydroxyhexyl}-Nα-(methoxycarbonyl)-β-phenyl-L-phenylalaninamide]	9.41	907	
COC(=O)N[C@H](C(=O)NCC(F)CC[C@@H](CO)N(CCC(C)C)S(=O)(=O)c1ccc(N)cc1)C(c1ccccc1)c1ccccc1 (single isomer, unassigned) [Example 1-1, N-[(2R or S,5S)-5-{[(4-aminophenyl)sulfonyl](3-methylbutyl)amino}-2-fluoro-6-hydroxyhexyl]-Nα-(methoxycarbonyl)-β-phenyl-L-phenylalaninamide]	9.62		42.8
COC(=O)N[C@H](C(=O)NCC(F)CC[C@@H](CO)N(CCC(C)C)S(=O)(=O)c1ccc(N)cc1)C(c1ccccc1)c1ccccc1 (single isomer, unassigned) [Example 1-2, N-[(2R or S,5S)-5-{[(4-aminophenyl)sulfonyl](3-methylbutyl)amino}-2-fluoro-6-hydroxyhexyl]-Nα-(methoxycarbonyl)-β-phenyl-L-phenylalaninamide]	11.00		19.5
COC(=O)N[C@H](C(=O)NCCC(F)C[C@@H](CO)N(C(C)C)S(=O)(=O)c1ccc(N)cc1)C(c1ccccc1)c1ccccc1 (stereo partly drawn) [Example 10, N-[(5S)-5-{[(4-aminophenyl)sulfonyl](propan-2-yl)amino}-3-fluoro-6-hydroxyhexyl]-Nα-(methoxycarbonyl)-β-phenyl-L-phenylalaninamide]	8.41	246	
COC(=O)N[C@H](C(=O)NCC(F)(F)CC[C@@H](C(N)=O)N(CC1CC(F)(F)C1)S(=O)(=O)c1ccc2ncsc2c1)C(c1ccccc1)c1ccccc1 [Example 7, N^6-[N-(methoxycarbonyl)-β-phenyl-L-phenylalanyl]-N^2-(1,3-benzothiazol-6-ylsulfonyl)-N^2-[(3,3-difluorocyclobutyl)methyl]-5,5-difluoro-L-lysinamide]	9.37	200	
COC(=O)N[C@H](C(=O)NCCC(F)(F)C[C@@H](CO)N(CC1CC(F)(F)C1)S(=O)(=O)c1ccc2ncsc2c1)C(c1ccccc1)c1ccccc1 [Example 9, N-[(5S)-5-{(1,3-benzothiazol-6-ylsulfonyl)[(3,3-difluorocyclobutyl)methyl]amino}-3,3-difluoro-6-hydroxyhexyl]-Nα-(methoxycarbonyl)-β-phenyl-L-phenylalaninamide]	8.25	105	
COC(=O)N[C@H](C(=O)NCC(F)CC[C@@H](CO)N(CCC(C)C)S(=O)(=O)c1ccc(N)cc1)C(c1ccccc1)c1ccccc1 (stereo partly drawn) [Example 1, N-[(5S)-5-{[(4-aminophenyl)sulfonyl](3-methylbutyl)amino}-2-fluoro-6-hydroxyhexyl]-Nα-(methoxycarbonyl)-β-phenyl-L-phenylalaninamide]	10.52	10.7	
COC(=O)N[C@H](C(=O)NCCC(F)(F)C[C@@H](CO)N(C(C)C)S(=O)(=O)c1ccc(N)cc1)C(c1ccccc1)c1ccccc1 [Example 8, N-[(5S)-5-{[(4-aminophenyl)sulfonyl](propan-2-yl)amino}-3,3-difluoro-6-hydroxyhexyl]-Nα-(methoxycarbonyl)-β-phenyl-L-phenylalaninamide]	8.22	299	
COC(=O)N[C@H](C(=O)NCC(F)(F)CC[C@@H](CO)N(CC1CC(F)(F)C1)S(=O)(=O)c1ccc2ncsc2c1)C(c1ccccc1)c1ccccc1 [Example 4, N-[(5S)-5-{(1,3-benzothiazol-6-ylsulfonyl)[(3,3-difluorocyclobutyl)methyl]amino}-2,2-difluoro-6-hydroxyhexyl]-Nα-(methoxycarbonyl)-β-phenyl-L-phenylalaninamide]	9.23	181	
COC(=O)N[C@H](C(=O)NCC(F)(F)CC[C@@H](CO)N(C1CCC(F)(F)CC1)S(=O)(=O)c1ccc2ncsc2c1)C(c1ccccc1)c1ccccc1 [Example 6, N-{(5S)-5-[(1,3-benzothiazol-6-ylsulfonyl)(4,4-difluorocyclohexyl)amino]-2,2-difluoro-6-hydroxyhexyl)-Nα-(methoxycarbonyl)-β-phenyl-L-phenylalaninamide]	8.56	356	
